Measurements as given in patent US6852744B2, “Pyrrolidine derivatives and their use as chymase inhibitor” (Dainippon Pharmaceutical Co., Ltd., priority 2000, dated 2005).

target: T1, monkey chymase (Macaca fascicularis, UniProt P56435); experiment: Monkey chymase inhibitory activity (in vitro, angiotensin I substrate); assay type: biochemical; details: Monkey Chymase Inhibition (IC50:nM), chymase purified from monkey cheek pouch and stomach; substrate angiotensin I; 37° C.
T1 construct: chymase was extracted from homogenized monkey cheek pouch and stomach; from tissue; host or cells: monkey cheek pouch and stomach
T1 sequence (P56435 22-247): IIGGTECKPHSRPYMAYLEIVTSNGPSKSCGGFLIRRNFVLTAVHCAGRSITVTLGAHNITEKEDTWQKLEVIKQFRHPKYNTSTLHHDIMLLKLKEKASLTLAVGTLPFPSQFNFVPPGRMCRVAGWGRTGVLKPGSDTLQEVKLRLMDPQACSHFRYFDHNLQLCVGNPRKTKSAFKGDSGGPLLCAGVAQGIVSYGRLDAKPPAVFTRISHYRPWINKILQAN
Description: The inhibitory activities of the compounds on monkey chymase and human chymase were tested in vitro. The test compounds are as shown by Compound Nos. in Tables 13 and 14.
Preparation of Monkey Chymase
Chymase was purified from monkey cheek pouch and stomach in the following manner.
Briefly, chymase was extracted from homogenized monkey cheek pouch and stomach with 0.01 mol/1000 ml sodium phosphate buffer, pH 7.4, containing 2 mol/1000 ml KCl and 0.1% Nonidet P-40 (Amresco Inc.). The solution containing chymase was applied to a heparin actigel column, and the chymase-rich fractions were collected.
Measurement of Chymase Inhibitory Activity (In Vitro Assay)
Briefly, the purified monkey or human chymase was diluted to an appropriate concentration with 0.01 mol/1000 ml sodium phosphate buffer, pH 7.4, containing 2 mol/1000 ml KCl and 0.1% Nonidet P-40 and used as enzyme solution. Angiotensin I (Peptide Institute Inc.) was diluted with water to 5 mg/ml and used as substrate solution. Test compounds were serially diluted with 10% DMSO. […] After pre-incubation of the mixture at 37° C., 20 μl of the substrate solution was added to the enzyme-test compound mixture and the new mixture was incubated at 37° C. Fifty μl of 30% trichloroacetic acid solution was finally added to stop the enzymatic reaction.
The amount of L-His-L-Leu was measured as angiotensin II produced by the enzymatic reaction. Briefly, 10 μl of the reaction mixture and 10 μl of 1% orthophthalaldehyde solution dissolved in methanol were mixed with 100 μl of 2 mol/1000 ml NaOH and kept at room temperature. The reaction was then stopped by adding 10 μl of 6 mol/1000 ml HCl.

SMILES | IC50 [nM]
CC(C)[C@H](NC(=O)c1ccncc1)C(=O)N1CCC[C@H]1C(=O)NC(Cc1csc2ccccc12)C(=O)C(F)(F)F (stereo partly shown) [I-A-66] | 49

same assay, conditions: chymase purified from monkey cheek pouch and stomach; substrate angiotensin I; 37° C.; read-out: Monkey Chymase Inhibition (IC50:nM)

SMILES | IC50 [nM]
Cc1nsc(C(=O)N[C@H](C(=O)N2CCC[C@H]2C(=O)NC(Cc2cc3ccccc3s2)C(=O)C(F)(F)F)C(C)C)n1 (stereo partly shown) [I-A-100] | 260
CC(C)[C@H](NC(=O)c1ccsc1)C(=O)N1CCC[C@H]1C(=O)NC(Cc1csc2ccccc12)C(=O)C(F)(F)F (stereo partly shown) [I-A-72] | 160
CC(C)[C@H](NC(=O)c1ccco1)C(=O)N1CCC[C@H]1C(=O)NC(Cc1csc2ccccc12)C(=O)C(F)(F)F (stereo partly shown) [I-A-74] | 350
Cc1noc(C)c1C(=O)N[C@H](C(=O)N1CCC[C@H]1C(=O)NC(Cc1ccc(F)cc1)C(=O)C(F)(F)F)C(C)C (stereo partly shown) [I-A-30] | 65
CC(C)[C@H](NC(=O)c1ccccn1)C(=O)N1CCC[C@H]1C(=O)NC(Cc1csc2ccccc12)C(=O)C(F)(F)F (stereo partly shown) [I-A-67] | 94
Cc1nc(C)c(C(=O)N[C@H](C(=O)N2CCC[C@H]2C(=O)NC(Cc2csc3ccccc23)C(=O)C(F)(F)F)C(C)C)s1 (stereo partly shown) [I-A-65] | 37
Cc1noc(C)c1C(=O)N[C@H](C(=O)N1CCC[C@H]1C(=O)NC(Cc1csc2ccccc12)C(=O)C(F)(F)F)C1CCCCC1 (stereo partly shown) [I-A-6] | 33
CC(C)[C@H](NC(=O)c1noc2ccccc12)C(=O)N1CCC[C@H]1C(=O)NC(Cc1csc2ccccc12)C(=O)C(F)(F)F (stereo partly shown) [I-A-58] | 210
Cc1noc(C)c1C(=O)N[C@H](C(=O)N1CCC[C@H]1C(=O)NC(Cc1ccccc1C(F)(F)F)C(=O)C(F)(F)F)C(C)C (stereo partly shown) [I-A-46] | 170
Cc1noc(C)c1C(=O)N[C@H](C(=O)N1CCC[C@H]1C(=O)NC(Cc1c[nH]c2ccccc12)C(=O)C(F)(F)F)C(C)C (stereo partly shown) [I-A-10] | 77
CC[C@H](NC(=O)c1snnc1C)C(=O)N1CCC[C@H]1C(=O)NC(Cc1csc2ccccc12)C(=O)C(F)(F)F (stereo partly shown) [I-A-21] | 19
Cc1nc(C)c(C(=O)N[C@H](C(=O)N2CCC[C@H]2C(=O)NC(Cc2csc3ccccc23)C(=O)C(F)(F)F)C(C)C)o1 (stereo partly shown) [I-A-69] | 98
CC(C)[C@H](NC(=O)Cn1ccc(=O)n(CC(=O)OC(C)(C)C)c1=O)C(=O)N1CCC[C@H]1C(=O)NC(Cc1ccc(Cl)cc1)C(=O)C(F)(F)F (stereo partly shown) [I-A-90] | 280
CC(C)[C@H](NC(=O)c1onc2ccccc12)C(=O)N1CCC[C@H]1C(=O)NC(Cc1csc2ccccc12)C(=O)C(F)(F)F (stereo partly shown) [I-A-59] | 250
Cc1noc(C)c1C(=O)N[C@H](C(=O)N1CCC[C@H]1C(=O)NC(Cc1ccc(I)cc1)C(=O)C(F)(F)F)C(C)C (stereo partly shown) [I-A-42] | 130
Cc1noc(C)c1C(=O)N[C@H](C(=O)N1CCC[C@H]1C(=O)NC(Cc1ccc(Cl)cc1)C(=O)C(F)(F)F)C(C)C (stereo partly shown) [I-A-43] | 140
CC(C)[C@H](NC(=O)c1cccs1)C(=O)N1CCC[C@H]1C(=O)NC(Cc1csc2ccccc12)C(=O)C(F)(F)F (stereo partly shown) [I-A-70] | 140
Cc1ccc(CC(NC(=O)[C@@H]2CCCN2C(=O)[C@@H](NC(=O)c2c(C)noc2C)C(C)C)C(=O)C(F)(F)F)cc1 (stereo partly shown) [I-A-35] | 80
CC(C)[C@H](NC(=O)Cn1ccc(=O)n(CC(=O)O)c1=O)C(=O)N1CCC[C@H]1C(=O)NC(Cc1ccc(Cl)cc1)C(=O)C(F)(F)F (stereo partly shown) [I-A-89] | 150
Cc1noc(C)c1C(=O)N[C@H](C(=O)N1CCC[C@H]1C(=O)NC(Cc1ccc(O)cc1)C(=O)C(F)(F)F)C(C)C (stereo partly shown) [I-A-28] | 54
Cc1cn(CC(=O)N[C@H](C(=O)N2CCC[C@H]2C(=O)NC(Cc2cc3ccccc3s2)C(=O)C(F)(F)F)C(C)C)c(=O)n(Cc2ccccc2)c1=O (stereo partly shown) [I-A-93] | 200
Cc1noc(C)c1C(=O)N[C@H](C(=O)N1CCC[C@H]1C(=O)NC(Cc1coc2ccccc12)C(=O)C(F)(F)F)C(C)C (stereo partly shown) [I-A-9] | 61
Cc1cccc(CC(NC(=O)[C@@H]2CCCN2C(=O)[C@@H](NC(=O)c2c(C)noc2C)C(C)C)C(=O)C(F)(F)F)c1 (stereo partly shown) [I-A-40] | 120
Cc1nnsc1C(=O)N[C@H](C(=O)N1CCC[C@H]1C(=O)NC(Cc1ccc2ccccc2c1)C(=O)C(F)(F)F)C(C)C (stereo partly shown) [I-A-22] | 37

SMILES | IC50 [nM]
CC(C)(C)OC(=O)Cn1c(=O)ccn(CC(=O)N[C@@H](CC2CCCCC2)C(=O)N2CCC[C@H]2C(=O)NC(Cc2ccccc2)C(=O)C(F)(F)F)c1=O (stereo partly shown) [I-A-92] | 860
Cc1noc(C)c1C(=O)N[C@H](C(=O)N1CCC[C@H]1C(=O)NC(Cc1cccc2ccccc12)C(=O)C(F)(F)F)C(C)C (stereo partly shown) [I-A-15] | 82
Cc1noc(C)c1C(=O)N[C@H](C(=O)N1CCC[C@H]1C(=O)NC(Cc1ccc(Cl)cc1)C(=O)C(F)(F)F)C(C)C (stereo partly shown) [I-A-29] | 57
Cc1nsc(C)c1C(=O)N[C@H](C(=O)N1CCC[C@H]1C(=O)NC(Cc1cc2ccccc2s1)C(=O)C(F)(F)F)C(C)C (stereo partly shown) [I-A-94] | 15
CC(C)[C@H](NC(=O)c1onc2cccnc12)C(=O)N1CCC[C@H]1C(=O)NC(Cc1csc2ccccc12)C(=O)C(F)(F)F (stereo partly shown) [I-A-71] | 140
CC(C)[C@H](NC(=O)c1ccc2c(c1)OCO2)C(=O)N1CCC[C@H]1C(=O)NC(Cc1csc2ccccc12)C(=O)C(F)(F)F (stereo partly shown) [I-A-57] | 100
Cc1noc(C)c1C(=O)N[C@H](C(=O)N1CCC[C@H]1C(=O)NC(Cc1ccccc1F)C(=O)C(F)(F)F)C(C)C (stereo partly shown) [I-A-27] | 51
CC(C)[C@H](NC(=O)CN1CCN(CC(=O)O)C1=O)C(=O)N1CCC[C@H]1C(=O)NC(Cc1ccc2ccccc2c1)C(=O)C(F)(F)F (stereo partly shown) [I-A-83] | 61
CC(C)[C@H](NC(=O)CN1CCN(CC(=O)OC(C)(C)C)C1=O)C(=O)N1CCC[C@H]1C(=O)NC(Cc1ccc2ccccc2c1)C(=O)C(F)(F)F (stereo partly shown) [I-A-84] | 190
Cc1snnc1C(=O)N[C@H](C(=O)N1CCC[C@H]1C(=O)NC(Cc1cc2ccccc2s1)C(=O)C(F)(F)F)C(C)C (stereo partly shown) [I-A-99] | 83
COc1ccc(CC(NC(=O)[C@@H]2CCCN2C(=O)[C@@H](NC(=O)c2c(C)noc2C)C(C)C)C(=O)C(F)(F)F)cc1 (stereo partly shown) [I-A-37] | 95
Cc1noc(C)c1C(=O)N[C@H](C(=O)N1CCC[C@H]1C(=O)NC(Cc1ccccc1Cl)C(=O)C(F)(F)F)C(C)C (stereo partly shown) [I-A-39] | 120
Cc1noc(C)c1C(=O)N[C@H](C(=O)N1CCC[C@H]1C(=O)NC(Cc1cccs1)C(=O)C(F)(F)F)C(C)C (stereo partly shown) [I-A-17] | 140
O=C(O)Cn1c(=O)ccn(CC(=O)N[C@@H](CC2CCCCC2)C(=O)N2CCC[C@H]2C(=O)NC(Cc2ccccc2)C(=O)C(F)(F)F)c1=O (stereo partly shown) [I-A-91] | 150
Cc1noc(C)c1C(=O)N[C@H](C(=O)N1CCC[C@H]1C(=O)NC(Cc1cc2ccccc2s1)C(=O)C(F)(F)F)C(C)C (stereo partly shown) [I-A-98] | 63
CC(C)[C@H](NC(=O)c1nsc(Cl)c1Cl)C(=O)N1CCC[C@H]1C(=O)NC(Cc1csc2ccccc12)C(=O)C(F)(F)F (stereo partly shown) [I-A-75] | 380
Cc1noc(C)c1C(=O)N[C@@H](Cc1ccccc1)C(=O)N1CCC[C@H]1C(=O)NC(Cc1ccccc1)C(=O)C(F)(F)F (stereo partly shown) [I-A-14] | 59
CC(C)[C@H](NC(=O)c1ccnc2ccccc12)C(=O)N1CCC[C@H]1C(=O)NC(Cc1csc2ccccc12)C(=O)C(F)(F)F (stereo partly shown) [I-A-56] | 47
Cc1noc(C)c1C(=O)N[C@H](C(=O)N1CCC[C@H]1C(=O)NC(Cc1ccc2c(c1)CCC2)C(=O)C(F)(F)F)C(C)C (stereo partly shown) [I-A-18] | 220
Cc1noc(C)c1C(=O)N[C@H](C(=O)N1CCC[C@H]1C(=O)NC(Cc1ccccc1)C(=O)C(F)(F)F)C(C)C (stereo partly shown) [I-A-26] | 44
Cc1noc(C)c1C(=O)N[C@H](C(=O)N1CCC[C@H]1C(=O)NC(CC1CCCCC1)C(=O)C(F)(F)F)C(C)C (stereo partly shown) [I-A-16] | 110
CC(C)[C@H](NC(=O)CN1CCN(CC(=O)O)C1=O)C(=O)N1CCC[C@H]1C(=O)NC(Cc1cc2ccccc2s1)C(=O)C(F)(F)F (stereo partly shown) [I-A-85] | 75
Cc1nc2c(C(=O)N[C@H](C(=O)N3CCC[C@H]3C(=O)NC(Cc3csc4ccccc34)C(=O)C(F)(F)F)C(C)C)cccc2o1 (stereo partly shown) [I-A-60] | 430
Cc1noc(C)c1C(=O)N[C@H](C(=O)N1CCC[C@H]1C(=O)NC(Cc1cccc(Cl)c1)C(=O)C(F)(F)F)C(C)C (stereo partly shown) [I-A-38] | 110
